This data set in a line: pH stability of the ibuprofen amine salt. The data set is classed as physicochemical. Particulars: pH range in which the salt is stable, after tested.

With `CC(C)Cc1ccc(C(C)C(=O)O)cc1.NC(CO)(CO)CO` (stereo not shown) [ibuprofen amine salt], the stability entry was “stable between pH 4 and 9”.
